Experimental data: patent publication US8524736B2, “Stereoisomeric compounds and methods for the treatment of gastrointestinal and central nervous system disorders” (Armetheon, Inc., priority 2004, dated 2013)

How the values were obtained:
fasted, conscious dogs = assay: gastric, small intestinal and colonic motor activity in fasted, conscious dogs; conditions: for prokinetic effects in the dog gut: IV and PO; for effect on migrating motor complex (MMC) characteristics: antrum, proximal, mid and distal small intestine
CYP450 2D6 = CYP450 2D6 (Homo sapiens, UniProt P10635); conditions: recombinant enzyme
human 5-HT4 receptor = target: T1, human 5-HT4 receptor (Homo sapiens, UniProt Q13639); assay: adenylyl cyclase stimulation in cells stably expressing human 5-HT4 receptor; type: cell-based; conditions: negative logarithm of the EC50
T1 construct: expressed in transfected cells

[1] = system: isolated, perfused guinea pig hearts
[2] = metabolism by esterases in human plasma
5-HT4 Receptor = target: T2, 5-HT4 Receptor (Cavia porcellus, UniProt O70528); assay: 5-HT4 Receptor Binding, Guinea Pig Striatum, [3H]GR113808; conditions: versus ATI-7500
T2 construct: Guinea Pig Striatum; from tissue; host or cells: guinea pig striatum

fed dogs = assay: gastric emptying in fed conscious dogs (time of MMC return); type: in vivo, dog; conditions: IV infusion over 20 minutes before a solid meal; FIG. 2

T1 sequence (Q13639 whole entry): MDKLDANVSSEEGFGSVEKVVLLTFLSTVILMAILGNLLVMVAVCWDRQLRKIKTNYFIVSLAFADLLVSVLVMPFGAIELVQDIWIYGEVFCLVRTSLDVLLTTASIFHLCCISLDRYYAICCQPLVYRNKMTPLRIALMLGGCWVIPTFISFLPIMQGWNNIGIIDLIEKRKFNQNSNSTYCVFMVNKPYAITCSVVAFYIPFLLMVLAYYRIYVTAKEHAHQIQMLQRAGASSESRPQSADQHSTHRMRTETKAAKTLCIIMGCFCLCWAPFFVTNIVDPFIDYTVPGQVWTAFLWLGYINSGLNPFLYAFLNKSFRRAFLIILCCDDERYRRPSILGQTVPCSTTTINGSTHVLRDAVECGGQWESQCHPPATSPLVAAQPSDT
Chain of CYP450 2D6 (P10635 whole entry): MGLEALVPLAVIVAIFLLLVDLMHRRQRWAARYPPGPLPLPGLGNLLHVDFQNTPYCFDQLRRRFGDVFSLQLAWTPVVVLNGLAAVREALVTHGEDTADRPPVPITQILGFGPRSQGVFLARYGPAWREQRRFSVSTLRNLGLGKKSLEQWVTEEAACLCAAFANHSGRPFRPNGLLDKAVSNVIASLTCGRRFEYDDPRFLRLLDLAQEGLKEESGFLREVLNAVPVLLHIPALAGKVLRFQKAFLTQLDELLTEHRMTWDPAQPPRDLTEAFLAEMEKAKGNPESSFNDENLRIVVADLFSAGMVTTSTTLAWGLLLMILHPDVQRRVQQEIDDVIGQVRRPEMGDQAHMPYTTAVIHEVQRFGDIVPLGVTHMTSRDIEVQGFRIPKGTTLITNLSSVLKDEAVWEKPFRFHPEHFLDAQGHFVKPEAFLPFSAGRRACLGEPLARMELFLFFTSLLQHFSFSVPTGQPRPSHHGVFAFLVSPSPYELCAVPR
T2 sequence (O70528 whole entry): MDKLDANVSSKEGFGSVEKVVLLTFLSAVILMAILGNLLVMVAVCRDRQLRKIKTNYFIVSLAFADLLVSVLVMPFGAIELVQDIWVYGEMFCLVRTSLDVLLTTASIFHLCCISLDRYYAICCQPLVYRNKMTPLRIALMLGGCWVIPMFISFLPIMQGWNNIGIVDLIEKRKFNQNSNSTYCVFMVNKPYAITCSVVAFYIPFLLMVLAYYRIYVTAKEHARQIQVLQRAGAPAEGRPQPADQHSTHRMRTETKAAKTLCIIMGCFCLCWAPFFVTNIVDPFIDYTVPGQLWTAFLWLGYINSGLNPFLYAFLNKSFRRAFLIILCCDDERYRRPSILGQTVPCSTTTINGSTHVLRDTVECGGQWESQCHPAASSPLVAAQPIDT

For `COc1cc(N)c(Cl)cc1C(=O)NC1CCN(CCCOc2ccc(F)cc2)CC1OC` (stereo not drawn) [Cisapride, reference compound], the “prokinetic effects in the dog gut” value (fasted, conscious dogs) was “caused prokinetic effects”, the “effect on migrating motor complex (MMC) characteristics” value (fasted, conscious dogs) was “minimal effect” and the “antral and small bowel contractility” value (fasted, conscious dogs; fasted dogs) was “dose-dependent stimulation of antral and small bowel contractility”. For the same molecule, the colonic motor activity (fasted, conscious dogs; fasted dogs) was “relatively little effect on colonic motor activity” and the “inhibitory activity against CYP450 2D6” value (CYP450 2D6) was “significant inhibitory activity”.

With `COc1cc(N)c(Cl)cc1C(=O)N[C@@H]1CCN(CCCCCC(=O)O)C[C@@H]1OC` [ATI-7500, 6-((3S,4R)-4-(4-amino-5-chloro-2-methoxybenzamido)-3-methoxypiperidin-1-yl)hexanoic acid] the “Potency pEC50” value (human 5-HT4 receptor) was 6.40.

With `COc1cc(N)c(Cl)cc1C(=O)N[C@@H]1CCN(CCCCCC(=O)O[C@H]2CN3CCC2CC3)C[C@@H]1OC` [ATI-7505, 6-[4R-(4-amino-5-chloro-2-methoxy-benzoylamino)-3S-methoxy-piperidin-1-yl]-hexanoic acid 1-aza-bicyclo[2.2.2]oct-3′R-yl ester] the “modulation of cardiac electrophysiologic parameters” value [1] was “very weak modulator of cardiac electrophysiologic parameters”, the “Potency pEC50” value (human 5-HT4 receptor) was 8.45 and the “metabolism by esterases in human plasma” value [2] was “rapidly metabolized by esterases in human plasma”. The “affinity for the 5-HT4 receptor, fold greater than ATI-7500” value (5-HT4 Receptor) was “at least 360 fold”, the “time of MMC return (index of gastric emptying)” value (fed dogs) was “significantly shortened the time of MMC return” and the “prokinetic effects in the dog gut” value (fasted, conscious dogs) was “caused prokinetic effects”. The “side effects such as diarrhea, anorexia, or weight loss” value (fasted, conscious dogs; IV and PO doses, dogs) was “exhibited no side effects”, the “MMC frequency in the proximal small intestine relative to controls” value (fasted, conscious dogs; PO) was “increased MMC frequency” and the “effect on migrating motor complex (MMC) characteristics” value (fasted, conscious dogs) was “minimal effect”. For the same molecule, the “antral and small bowel contractility” value (fasted, conscious dogs; fasted dogs) was “dose-dependent stimulation of antral and small bowel contractility”, the colonic motor activity (fasted, conscious dogs; fasted dogs) was “relatively little effect on colonic motor activity” and the “development of retrograde giant migrating contractions” value (fasted, conscious dogs; fasted dogs) was “not associated with the development of retrograde giant migrating contractions”.
